Marks after values point to notes of the source that are not given here.
Columns and labels:
[1] = Recrystallization screen for bupropion hydrobromide polymorphic forms (PXRD); format: physicochemical
Experimental: (§1) It is well known that organic molecules can crystallize into solid forms. Moreover the same organic compound may assume different crystalline arrangements in solid form, depending on the conditions under which the crystal product is formed. This phenomenon is commonly known as polymorphism. A study was undertaken to explore the polymorphic forms of bupropion hydrobromide. The crystal forms of the products obtained in this study were determined by powder X-ray diffraction (PXRD). A RIGAKU miniflex instrument (Radiation Cu K∝, generator 30 KV, filter Ni) was used to obtain the PXRD data.
Polymorphic form II was obtained by recrystallization of form 1 from solvents or mixtures of solvents such as acetone-water, methanol, dichloromethane, toluene-methanol and dimethylcarbonate-methanol. Polymorphic form III was obtained by recrystallization of polymorphic form I in methanol. Table 80 provides a list of recrystallization conditions and the polymorphic form obtained under each set of conditions.

[2] = Forced degradation stability study of bupropion salts spiked with placebo/excipients, closed vials, 40° C./75% RH, HPLC assay and impurities; conditions: for Stability in the forced degradation stability studies, overall: DS and spiked DS; for Content of impurity 852U77, order of salts / Total imp., order of salts / Content of impurity 3-CBZ, order of salts: 32 days
Experimental: The stability of the salts was evaluated based on the formation of the main degradation products (see below) as determined by HPLC analysis and the % potency (or assay) of the API, after specific time periods in the stability chamber. The effect of the addition of solvents, such as water, ethanol and isopropyl alcohol, was also studied.
The samples of each salt and the spiked salts with the bupropion HCl XL were prepared under the conditions mentioned in Table 4. […] The stability of the bupropion salts were evaluated based on the formation of the main degradation product 3-chlorobenzoic acid (3-CBZ) and the intermediate degradation products diketone 827U76 and the ketohydroxyl derivatives (20U78 and 852U77) (Scheme 2).
As mentioned above, the stability samples were prepared in 2 mL vials and used directly for assay and impurity analysis by HPLC without further sample preparations to minimize errors.

[3] = Moisture content of bupropion salts by KF; format: physicochemical; conditions: for KF (moisture content), Original (Initial APIs): original API salts
Experimental: (§2) The eight salts were first evaluated by HPLC, KF, pH and DSC for purity, water content, aqueous pH and possible polymorphs.
(§3) The salts were analysed by DSC (at 10° C./min from 30° C. up to 400° C.) and the pH (aq. 0.5%), and the moisture content by KF were also measured. The TGA was performed on the HCl, maleate, tosylate and HBr salts.

[4] = pH of 0.5% aqueous solution of bupropion salts; format: physicochemical; conditions: 0.5% aqueous solution; for pH (aq. 0.5%), Original (Initial APIs): original API salts
Experimental: as §2, §3

[5] = Thermal analysis by TGA of bupropion salts; format: physicochemical; conditions: for TGA: weight lost between room temperature and 100° C.: room temperature to 100° C.
Experimental: 2-5 mg of each salt was placed in an aluminium pan and covered with its lid. DSC was run for each sample at the rate of 10° C./min (for HBr salt, different rates were used to investigate for polymorphs) from 30° C. to 400° C. TGA was also used for each of the HBr, HCl, maleate and tosylate salts.
as §3

[6] = Stability of bupropion HBr polymorphic forms I, II and III by PXRD under ICH conditions; format: physicochemical; conditions: for Stability of the polymorphic form (words): ICH conditions 40° C., 75% R.H.; for Stability of the polymorphic form (words) / PXRD profile / crystalline form after storage (words): hydrobromide; for PXRD profile / crystalline form after storage (words): ICH conditions 40° C./75% r.h., 1 month
Experimental: as §1, with “A study was undertaken to explore the polymorphic forms of bupropion hydrobromide.” left out
The three polymorphic forms were subjected to stability testing. […] Samples of the polymorphic forms II and III were tested after 1 month under the same accelerated stability conditions.
Samples of bupropion HBr form I were subjected to the conditions for the accelerated stability study as described in Example 10 and the shelf life stability study as described in Example 11.
10 g of bupropion HBr form I were dissolved in a mixture of 170 ml of acetone and 7 ml of water. The mixture was brought to reflux with dissolution of the solid. The solution was then cooled to room temperature. After one night the precipitate formed was filtered and dried at 40° C. under vacuum (30 mmHg) for 12 hours. […] The crystalline form was checked after maintaining the product under these conditions for 1 month.
The mixture was brought to reflux obtaining complete dissolution of the solid. The solution was then cooled to room temperature without stirring and left in these conditions for 18 hours. The resulting crystalline solid was then filtered and dried under vacuum (30 mmHg) at 50° C. for 4 hours. […] The crystalline form was checked after maintaining the product in these conditions for 1 month.

[7] = recrystallized product, solvent/cosolvent differ per trial, trial no. in label

Molecule: Br.CC(NC(C)(C)C)C(=O)c1cccc(Cl)c1 (centres unmarked) [Bupropion Hydrobromide 116]
- K.F. (%) ([1]; Form I in rotavapor 100° C. 24 h): 0.45%

Molecule: Br.CC(NC(C)(C)C)C(=O)c1cccc(Cl)c1 (centres unmarked) [Bupropion Hydrobromide 099]
- K.F. (%) [1, 7]: 0.12%

Molecule: tartrate
- Stability in the 10 days forced degradation study ([2]; 10 days, 40° C./75% RH, closed vials, with or without excipients): not stable
- Stability in the forced degradation stability studies, overall ([2]; 40° C./75% RH): very poor

Molecule: oxalate
- Stability in the forced degradation stability studies, overall ([2]; 40° C./75% RH): very poor

Molecule: Br.CC(NC(C)(C)C)C(=O)c1cccc(Cl)c1 (centres unmarked) [Bupropion Hydrobromide 112]
- K.F. (%) [1, 7]: 0.18%

Molecule: Br.CC(NC(C)(C)C)C(=O)c1cccc(Cl)c1 (centres unmarked) [Bupropion Hydrobromide 098B]
- K.F. (%) [1, 7]: 0.16%

Molecule: Bupropion succinate
- KF (moisture content), Original (Initial APIs) [3]: 0.13%
- pH (aq. 0.5%), Original (Initial APIs) [4]: 4.82

Molecule: Bupropion tosylate
- KF (moisture content), Original (Initial APIs) [3]: 1.71%
- KF (moisture content), Original (Initial APIs) ([3]; listed as Bup-Tosylate): 1.71* %
- KF, After recrystallization (R&D), Tested after 2 Months ([3]; re-crystallized salt, 2 months): 0.18%
- KF, After recrystallization (R&D), Tested after 1 day ([3]; re-crystallized salt): 0.23%
- KF, After recrystallization (R&D), Tested after 1 day ([3]; re-crystallized salt, listed as Bup-Tosylate): 023%
- TGA: residue at 400° C. [5]: 10.3%
- TGA: weight lost between room temperature and 100° C. [5]: 1.3%
- pH (aq. 0.5%), Original (Initial APIs) [4]: 5.56
- pH (aq. 0.5%), After recrystallization (R&D), Tested after 1 day ([4]; re-crystallized salt): 5.88
- Content of impurity 852U77, order of salts ([2]; In IPA/EtOH, closed vials): fumarate > HBr ≈ HCl ≈ maleate ≈ tosylate
- Total imp., order of salts ([2]; In IPA/EtOH, closed vials): fumarate > maleate > HBr > HCl > tosylate
- Total imp., order of salts ([2]; In water, closed vials): fumarate > HBr > HCl > tosylate > maleate

Molecule: CC(NC(C)(C)C)C(=O)c1cccc(Cl)c1.O=C(O)C(O)C(O)C(=O)O (centres unmarked) [Bupropion tartrate acid]
- KF (moisture content), Original (Initial APIs) [3]: 0.18%
- pH (aq. 0.5%), Original (Initial APIs) [4]: 3.62

Molecule: Br.CC(NC(C)(C)C)C(=O)c1cccc(Cl)c1 (centres unmarked) [Bupropion Hydrobromide 117]
- K.F. (%) [1, 7]: 0.32%

Molecule: Bupropion maleate
- KF (moisture content), Original (Initial APIs) [3]: 0.10%
- TGA: residue at 400° C. [5]: minimal residues
- TGA: thermally stable to at least ([5]; TGA): at least 150 °C
- TGA: weight lost between room temperature and 100° C. [5]: 1.3%
- pH (aq. 0.5%), Original (Initial APIs) [4]: 4.29
- Content of impurity 3-CBZ, order of salts ([2]; In IPA/EtOH, closed vials): maleate > HBr > HCl > Fumarate
- Content of impurity 852U77, order of salts ([2]; In IPA/EtOH, closed vials): fumarate > HBr ≈ HCl ≈ maleate ≈ tosylate
- Total imp., order of salts ([2]; In IPA/EtOH, closed vials): fumarate > maleate > HBr > HCl > tosylate
- Content of impurity 3-CBZ, order of salts ([2]; In water, closed vials): HCl > HBr ≈ maleate ≈ fumarate
- Content of impurity 852U77, order of salts ([2]; In water, closed vials): fumarate > HBr > maleate > HCl
- Total imp., order of salts ([2]; In water, closed vials): fumarate > HBr > HCl > tosylate > maleate

Molecule: Br.CC(NC(C)(C)C)C(=O)c1cccc(Cl)c1 (centres unmarked) [Bupropion Hydrobromide 122]
- K.F. (%) [1, 7]: 1.3%

Molecule: Br.CC(NC(C)(C)C)C(=O)c1cccc(Cl)c1 (centres unmarked) [Bupropion Hydrobromide 108]
- K.F. (%) [1, 7]: 0.14%

Molecule: Br.CC(NC(C)(C)C)C(=O)c1cccc(Cl)c1 (centres unmarked) [Bupropion Hydrobromide 097]
- K.F. (%) [1, 7]: 0.06%

Molecule: Bupropion Fumarate
- KF (moisture content), Original (Initial APIs) [3]: 0.09%
- pH (aq. 0.5%), Original (Initial APIs) [4]: 3.84
- Content of impurity 3-CBZ, order of salts ([2]; In IPA/EtOH, closed vials): maleate > HBr > HCl > Fumarate
- Content of impurity 852U77, order of salts ([2]; In IPA/EtOH, closed vials): fumarate > HBr ≈ HCl ≈ maleate ≈ tosylate
- Total imp., order of salts ([2]; In IPA/EtOH, closed vials): fumarate > maleate > HBr > HCl > tosylate
- Content of impurity 3-CBZ, order of salts ([2]; In water, closed vials): HCl > HBr ≈ maleate ≈ fumarate
- Content of impurity 852U77, order of salts ([2]; In water, closed vials): fumarate > HBr > maleate > HCl
- Total imp., order of salts ([2]; In water, closed vials): fumarate > HBr > HCl > tosylate > maleate

Molecule: CC(NC(C)(C)C)C(=O)c1cccc(Cl)c1.CC(NC(C)(C)C)C(=O)c1cccc(Cl)c1.O=C(O)C(O)C(O)C(=O)O (centres unmarked) [Bupropion tartrate neutral]
- KF (moisture content), Original (Initial APIs) [3]: 0.14%
- pH (aq. 0.5%), Original (Initial APIs) [4]: 3.62

Molecule: Br.CC(NC(C)(C)C)C(=O)c1cccc(Cl)c1 (centres unmarked) [Bupropion Hydrobromide 098A]
- K.F. (%) [1, 7]: 0.13%

Molecule: Br.CC(NC(C)(C)C)C(=O)c1cccc(Cl)c1 (centres unmarked) [Form I, bupropion hydrobromide]
- Stability of the polymorphic form (words) ([6]; listed as form I): quite stable
- PXRD profile after storage ([6]; accelerated (40° C./75% RH) and shelf life conditions, 3 months and 6 months): gave the same results

Molecule: Br.CC(NC(C)(C)C)C(=O)c1cccc(Cl)c1 (centres unmarked) [Form II, bupropion hydrobromide]
- Stability of the polymorphic form (words) ([6]; listed as form II): quite stable
- PXRD profile / crystalline form after storage (words) ([6]; listed as bupropion HBr form II): still in form II
- PXRD profile / crystalline form after storage (words) ([6]; listed as form II): no change in the PXRD profile

Molecule: Br.CC(NC(C)(C)C)C(=O)c1cccc(Cl)c1 (centres unmarked) [Form III, bupropion hydrobromide]
- Stability of the polymorphic form (words) ([6]; listed as form III): not as stable as forms I and II
- PXRD profile / crystalline form after storage (words) ([6]; listed as bupropion HBr form III): the majority of the product changed to form II
- PXRD profile / crystalline form after storage (words) ([6]; listed as form III): conversion to form II

Molecule: Br.CC(NC(C)(C)C)C(=O)c1cccc(Cl)c1 (centres unmarked) [Bupropion Hydrobromide 111]
- K.F. (%) [1, 7]: 0.32%

Molecule: Br.CC(NC(C)(C)C)C(=O)c1cccc(Cl)c1 (centres unmarked) [Bupropion Hydrobromide 113]
- K.F. (%) [1, 7]: 0.39%

Reference: US7884136B2, “Modified-release formulations of a bupropion salt” (Biovail Laboratories International S.R.L., priority 2005, dated 2011)
